Patent US9005937B2, “Dual cofactor specific ribitol dehydrogenase and use thereof” (Konkuk University Industrial Cooperation Corp., priority 2011, dated 2015)
Where a chain is given by its changes, count along the chain named. Names and notes keep the numbering of the source. Read-outs that look alike come from different tables or passages of the source.

Tests used:
[1] = target: T1, Zymomonas mobilis ribitol dehydrogenase (SEQ ID NO: 4) variant S156G (Zymomonas mobilis, UniProt Q5NQS1, S229G); test: Dynamical parameters to coenzyme, variant S156G; type: biochemical
T1 sequence (Q5NQS1 74-338 S229G): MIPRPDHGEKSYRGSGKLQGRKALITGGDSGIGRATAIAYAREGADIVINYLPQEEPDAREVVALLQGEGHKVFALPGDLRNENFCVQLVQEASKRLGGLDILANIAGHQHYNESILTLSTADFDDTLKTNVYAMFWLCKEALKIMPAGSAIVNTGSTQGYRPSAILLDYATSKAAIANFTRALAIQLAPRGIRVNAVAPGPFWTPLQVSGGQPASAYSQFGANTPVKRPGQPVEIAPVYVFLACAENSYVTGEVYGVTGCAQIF
Description: (§1) There were no differences between the expression amount of various amino acid variants of Ser 156 and the expression amount of wide-type. The dynamical parameter of each of variants was confirmed using the above variants.

[2] = target: T2, Zymomonas mobilis ribitol dehydrogenase, wild-type, SEQ ID NO: 4 (Zymomonas mobilis, UniProt Q5NQS1); test: Dynamical (kinetic) parameters of ribitol dehydrogenase to coenzyme NAD(H)/NADP(H), wild-type; type: biochemical
T2 sequence (Q5NQS1 74-338): T1 sequence (Q5NQS1 74-338 S229G) with G156S
Method: (§2) The optimum pH on dehydrogenation activity of the ribitol dehydrogenase was measured using 20 mM of Tris-HCl buffer. The enzyme activity was determined by monitoring the change per minute in absorbance at 340 nm while the sample was reacted in the presence of NAD(H) and ribitol.
Then, dynamical parameters were measured through a nonlinear regression analysis.

[3] = target: T3, Zymomonas mobilis ribitol dehydrogenase (SEQ ID NO: 4) variant S156D, SEQ ID NO: 5 (Zymomonas mobilis, UniProt Q5NQS1, N321D/S229D); test: Dynamical parameters to coenzyme, variant S156D; type: biochemical
T3 sequence (Q5NQS1 74-338 S229D/N321D): T1 sequence (Q5NQS1 74-338 S229G) with G156D, N248D
Description: In addition, the present invention provides a ribitol dehydrogenase mutant selected from the group consisting of a) a mutant, in which serine, an amino acid at position 156 of the ribitol dehydrogenase having an amino acid sequence as set forth in SEQ ID NO: 4 is substituted with aspartic acid; and b) a mutant, in which tyrosine, an amino acid at position 51 of the ribitol dehydrogenase having an amino acid sequence as set forth in SEQ ID NO: 4 is substituted with aspartic acid and serine, an amino acid at position 156 is substituted with alanine.
The mutants have preferably amino acid sequences as set forth in SEQ ID NOS: 5 and 6, respectively, but the present invention is not limited thereto.
as §1

[4] = target: T4, Zymomonas mobilis ribitol dehydrogenase (SEQ ID NO: 4) variant S156E (Zymomonas mobilis, UniProt Q5NQS1, S229E); test: Dynamical parameters to coenzyme, variant S156E; type: biochemical
T4 sequence (Q5NQS1 74-338 S229E): T1 sequence (Q5NQS1 74-338 S229G) with G156E
Description: as §1

[5] = target: T5, Zymomonas mobilis ribitol dehydrogenase (SEQ ID NO: 4) variant S156Y (Zymomonas mobilis, UniProt Q5NQS1, S229Y); test: Dynamical parameters to coenzyme, variant S156Y; type: biochemical
T5 sequence (Q5NQS1 74-338 S229Y): T1 sequence (Q5NQS1 74-338 S229G) with G156Y
Description: as §1

[6] = target: T6, Zymomonas mobilis ribitol dehydrogenase (SEQ ID NO: 4) variant S156A (Zymomonas mobilis, UniProt Q5NQS1, S229A); test: Dynamical parameters to coenzyme, variant S156A; type: biochemical
T6 sequence (Q5NQS1 74-338 S229A): T1 sequence (Q5NQS1 74-338 S229G) with G156A
Description: as §1

[7] = target: T7, Zymomonas mobilis ribitol dehydrogenase (SEQ ID NO: 4) variant S156C (Zymomonas mobilis, UniProt Q5NQS1, S229C); test: Dynamical parameters to coenzyme, variant S156C; type: biochemical
T7 sequence (Q5NQS1 74-338 S229C): T1 sequence (Q5NQS1 74-338 S229G) with G156C
Description: as §1

[8] = target: T8, Zymomonas mobilis ribitol dehydrogenase (SEQ ID NO: 4) variant S156T (Zymomonas mobilis, UniProt Q5NQS1, S229T); test: Dynamical parameters to coenzyme, variant S156T; type: biochemical
T8 sequence (Q5NQS1 74-338 S229T): T1 sequence (Q5NQS1 74-338 S229G) with G156T
Description: as §1

[9] = target: T9, Zymomonas mobilis ribitol dehydrogenase (SEQ ID NO: 4) variant S156W (Zymomonas mobilis, UniProt Q5NQS1, S229W); test: Dynamical parameters to coenzyme, variant S156W; type: biochemical
T9 sequence (Q5NQS1 74-338 S229W): T1 sequence (Q5NQS1 74-338 S229G) with G156W
Description: as §1

[10] = coenzyme NADP(H)
Method: as §2

[11] = Production of L-ribulose from ribitol with cell bodies of recombinant strains expressing the variants; type: cell-based, E. coli; settings: whole cells, 25° C., 6 hours; for L-ribulose produced, concentration: 20 mM Tris-HCl buffer pH 9.5, HPLC
Method: The following experiments were performed in order to produce L-ribulose using a ribitol dehydrogenase variant having double coenzyme specificity. The variants prepared by using the method of Example 5-3 were expressed using the method of Example 2; the cell bodies were only collected by centrifuging (8000×g for 10 minutes) the recombinant strain culture solution; and then the cell bodies were washed with distilled water twice. The final Cell OD was measured and the same amount of cells was used for a production experiment. The ribitol and each of recombinant enzyme variants were subjected to an enzyme reaction in 20 mM of Tris-HCl buffer (pH 9.5) at a temperature of 25° C. for 6 hours.

[12] = Optimum pH on dehydrogenation activity of the ribitol dehydrogenase; type: biochemical; settings: 20 mM Tris-HCl buffer; NAD(H) and ribitol; absorbance at 340 nm
Description: Physicochemical properties of the ribitol dehydrogenase isolated in Example 4 were investigated using ribitol as a substrate.

[13] = substrate: NC(=O)c1ccc[n+]([C@@H]2O[C@H](COP(=O)(O)OP(=O)(O)OC[C@H]3O[C@@H](n4cnc5c(N)ncnc54)[C@H](OP(=O)(O)O)[C@@H]3O)[C@@H](O)[C@H]2O)c1; test: purified protein, by the assay type; settings: ribitol, wild-type, pH 9.0
[14] = coenzyme NAD(H)
Method: as §2

[15] = read-out: Km, NAD, NAD 0.01 to 3 mM
[16] = other: NADP(H) 0.1 to 2 mM, 20 mM Tris-HCl, 340 nm

For NC(=O)c1ccc[n+]([C@@H]2O[C@H](COP(=O)(O)OP(=O)(O)OC[C@H]3O[C@@H](n4cnc5c(N)ncnc54)[C@H](O)[C@@H]3O)[C@@H](O)[C@H]2O)c1 [NAD^+, nicotinamide adenine dinucleotide], the “kcat (NAD^+)” value ([1]; NAD 0.01 to 3 mM) was 1.04 ± 0.02 s⁻¹, the Km [1, 15] was 140 ± 10 µM and the “kcat (NAD^+)” value ([2]; NAD 0.01 to 3 mM) was 4.83 ± 0.51 s⁻¹. The “kcat (NAD(H))” value ([2]; NAD(H) 0.1 to 2 mM, 20 mM Tris-HCl, 340 nm) was “about 4.84 s^−1”, the Km [2, 15] was 180 ± 20 µM and the Km ([2]; read-out: Km, NAD, NAD(H) 0.1 to 2 mM, 20 mM Tris-HCl, 340 nm) was ~180 µM. For the same molecule, the “kcat (NAD^+)” value ([3]; NAD 0.01 to 3 mM) was 1.79 ± 0.01 s⁻¹, the Km [3, 15] was 20 ± 2 µM and the “kcat (NAD^+)” value ([4]; NAD 0.01 to 3 mM) was 2.06 ± 0.07 s⁻¹. For the same molecule, the Km [4, 15] was 50 ± 3 µM, the “kcat (NAD^+)” value ([5]; NAD 0.01 to 3 mM) was 1.60 ± 0.13 s⁻¹ and the Km [5, 15] was 150 ± 10 µM. For the same molecule, the “kcat (NAD^+)” value ([6]; NAD 0.01 to 3 mM) was 1.93 ± 0.16 s⁻¹, the Km [6, 15] was 190 ± 20 µM and the “kcat (NAD^+)” value ([7]; NAD 0.01 to 3 mM) was 2.00 ± 0.09 s⁻¹. For the same molecule, the Km [7, 15] was 100 ± 20 µM, the “kcat (NAD^+)” value ([8]; NAD 0.01 to 3 mM) was 2.85 ± 0.10 s⁻¹ and the Km [8, 15] was 210 ± 60 µM. The “kcat (NAD^+)” value ([9]; NAD 0.01 to 3 mM) was 2.62 ± 0.11 s⁻¹ and the Km [9, 15] was 160 ± 20 µM.

B1: Zymomonas mobilis ribitol dehydrogenase, wild-type, SEQ ID NO: 4 (Zymomonas mobilis subsp. mobilis ZM4 = ATCC 31821) (protein)
chain: T1 sequence (Q5NQS1 74-338 S229G) with G156S
With B1 the “Relative activity (%), NADP(H)” value [10] was 42.9%, the “L-ribulose produced, concentration” value [11] was 0.80 g/L and the “optimum pH” value [12] was 9.5. It also gave a Km ([13]; other: NADP 0.01 to 3 mM) of 260 ± 20 µM, a kcat ([13]; other: NADP 0.01 to 3 mM) of 2.79 s⁻¹ and a kcat/Km ([13]; other: NADP 0.01 to 3 mM) of 10800 M⁻¹ s⁻¹. For the same molecule, the Km [13, 16] was 260 µM, the kcat [13, 16] was 2.79 s⁻¹ and the “Relative activity (%), NAD(H)” value [14] was 100%.

B2: S156D: mutant in which serine at position 156 of SEQ ID NO: 4 is substituted with aspartic acid (SEQ ID NO: 5) (protein)
chain: T1 sequence (Q5NQS1 74-338 S229G) with G156D, N248D
modifications: mutant
In the case of B2, the “L-ribulose produced, concentration” value [11] is reported as 1.21 g/L and the “conversion rate of L-ribulose in the whole cell level compared with wild-type (in words)” value ([11]; pH 9.5) is reported as “higher”.
